In patent US12577217B2, “15-PGDH inhibitor” (KYORIN Pharmaceutical Co., Ltd., priority 2019, dated 2026):

The compounds below were run against T1, recombinant human 15-PGDH (Homo sapiens, UniProt P15428) (assay: 15-PGDH enzyme inhibition test). Details: 4 nM recombinant human 15-PGDH, 30 μM PGE2, 1 mM NAD+, 60 minutes after starting the reaction; read-out: IC50 Value.
T1 construct: purchased R&D Systems
T1 sequence (P15428 1-266): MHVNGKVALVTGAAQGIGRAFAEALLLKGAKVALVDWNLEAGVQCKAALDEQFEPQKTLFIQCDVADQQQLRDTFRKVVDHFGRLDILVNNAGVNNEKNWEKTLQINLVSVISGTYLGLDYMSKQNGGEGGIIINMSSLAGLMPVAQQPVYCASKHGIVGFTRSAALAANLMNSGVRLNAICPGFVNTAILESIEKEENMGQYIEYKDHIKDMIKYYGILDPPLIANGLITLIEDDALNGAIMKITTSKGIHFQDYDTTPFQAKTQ
Type: biochemical
How it was run: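 Fluorescence (excitation 340 nm, emission 440 nm) measured 60 min after adding 1 mM NAD+ and 30 μM PGE2 to 4 nM recombinant human 15-PGDH, which had stood 12 min at room temperature with compound in pH 8.0 Tris-HCl buffer. Concentration-response curves yield IC50, binned into potency categories.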

Row | Structure (SMILES) | IC50 [nM]
1 | O=C(c1cnc2c(c1)OCCN2c1ccn2c(=O)n(Cc3cccnc3)nc2c1)N1CCCCC1 [Example 1-32] | < 10
2 | Cn1nc2cc(N3CCOc4cc(C(=O)N5CCCC(C)(F)C5)cnc43)ccn2c1=O (single isomer, unassigned) [23-2 Isomer B] | < 10
3 | Cn1nc2cc(N3CCOc4cc(C(=O)N5CCCC(C)(F)C5)cnc43)ccn2c1=O (single isomer, unassigned) [23-2 Isomer A] | < 10
4 | O=C(c1ccc2c(c1)OCCN2c1ccc2c(=O)[nH]cnc2c1)N1CCC(F)(F)CC1 [Example 1-152] | < 10
5 | CN1Cc2cc(N3CCOc4cc(C(=O)N5CCC(F)(F)CC5)ccc43)ncc2C1=O [Example 1-151] | < 10
6 | Cn1nc2cc(N3CCCc4cc(C(=O)N5CCCCC5)cnc43)ccn2c1=O [Example 1-94] | < 10
7 | Cn1oc2cc(N3CCOc4cc(C(=O)N5CCCCC5)cnc43)ccc2c1=O [Example 1-19] | < 10
8 | O=C(c1cnc2c(c1)OCCN2c1ccccn1)N1CCCCC1 [Example 1-235] | > 100
9 | CNC(=O)c1ccc(N2CCCc3cc(C(=O)N4CCCCC4)cnc32)cn1 [Example 1-210] | < 10
10 | O=C(c1cnc2c(c1)CCCN2c1ccc2c(=O)[nH]cnc2c1)N1CCCCC1 [Example 1-155] | < 10
11 | CCc1ccc(N2CCOc3cc(C(=O)N4CCCCC4)cnc32)cc1 [Example 1-244] | 10 to 100
12 | Cn1ncc2cc(N3CCOc4cc(C(=O)N5CCCCC5)cnc43)ccc2c1=O [Example 1-218] | < 10
13 | O=C(c1cnc2c(c1)CCCN2c1ccn2c(=O)[nH]nc2c1)N1CCC(F)(F)CC1 [Example 1-184] | < 10
14 | COCCn1nc2cc(N3CCCc4cc(C(=O)N5CCC[C@H](CF)C5)cnc43)ccn2c1=O [Example 1-116] | < 10
15 | CCn1nc2cc(N3CCCc4cc(C(=O)N5CCC[C@H](CF)C5)cnc43)ccn2c1=O [Example 1-113] | < 10
16 | N#Cc1ccc(N2CCCc3cc(C(=O)N4CCCCC4)cnc32)cc1 [Example 1-209] | < 10
17 | Cn1cnc2cc(N3CCCc4cc(C(=O)N5CCCCC5)cnc43)cnc2c1=O [Example 1-190] | < 10
18 | Cn1nc2cc(N3CCCCc4cc(C(=O)N5CCCCC5)cnc43)ccn2c1=O [Example 1-107] | < 10
19 | CCOCn1nc2cc(N3CCCc4cc(C(=O)N5CCC[C@@H](CF)C5)cnc43)ccn2c1=O [Example 1-122] | < 10
20 | O=C(c1cnc2c(c1)OCCN2c1ccc2c(c1)CN(C1CC1)C2=O)N1CCCCC1 [Example 1-224] | < 10
21 | COC(=O)Cn1nc2cc(N3CCOc4cc(C(=O)N5CCCCC5)cnc43)ccn2c1=O [Example 1-40] | < 10
22 | O=C(c1cnc2c(c1)CCCN2c1ccc2c(c1)CN(CC1COC1)C2=O)N1CCCCC1 [Example 1-65] | < 10

Second part, the compound after the results:

Row | IC50 [nM] | Structure (SMILES)
23 | > 100 | Cn1nc2cc(N3CCOc4cc(C(=O)N5CCC[C@@H]5C(=O)O)cnc43)ccn2c1=O [Example 35-2]
24 | > 100 | Cn1nc2cc(N3CCOc4cc(C(=O)N5CCCCC5(C)C)cnc43)ccn2c1=O [Example 8-172]
25 | < 10 | NC(=O)c1ccc(N2CCOc3cc(C(=O)N4CCCCC4)cnc32)cn1 [Example 6-21]
26 | < 10 | CCN1Cc2cc(N3CCCc4cc(C(=O)N5CCC(C)CC5)cnc43)ccc2C1=O [Example 8-80]
27 | < 10 | CCn1nc2cc(N3CCCc4cc(C(=O)N5CCc6ccccc6C5)cnc43)ccn2c1=O [Example 8-155]
28 | > 100 | Cn1nc2cc(N3CCCc4cc(S(=O)(=O)C5CCCCC5)cnc43)ccn2c1=O [Example 7-8]
29 | < 10 | O=C(O)Cc1ccc(N2CCOc3cc(C(=O)N4CCCCC4)ccc32)cc1 [Example 2-32]
30 | < 10 | CCN1Cc2cc(N3CCCc4cc(C(=O)N5CCCCCCC5)cnc43)ccc2C1=O [Example 8-71]
31 | < 10 | CC1CN(C(=O)c2cnc3c(c2)OCCN3c2ccc3c(c2)CN(C)C3=O)CCC1(F)F (centres unmarked) [Example 8-210]
32 | < 10 | CC1CCN(C(=O)c2cnc3c(c2)CCCN3c2ccn3c(=O)n(C)nc3c2)CC1 [Example 8-136]
33 | < 10 | CO[C@H]1CCCN(C(=O)c2cnc3c(c2)OCCN3c2ccn3c(=O)n(C)nc3c2)C1 [Example 18-2]
34 | < 10 | CN1Cc2cc(N3CCOc4cc(C(=O)N5CCC[C@@H](C(F)F)C5)cnc43)ccc2C1=O [Example 8-205]
35 | < 10 | Cn1nc2cc(N3CCOc4cc(C(=O)N5CCCCC5)sc43)ccn2c1=O [Example 8-222]
36 | < 10 | C[C@@H]1CCCCN1C(=O)c1cnc2c(c1)OCCN2c1ccn2c(=O)n(C)nc2c1 [Example 8-21]
37 | 10 to 100 | CCN(CC(C)O)C(=O)c1cnc2c(c1)OCCN2c1ccn2c(=O)n(C)nc2c1 (centres unmarked) [Example 8-179]
38 | < 10 | CCN1Cc2cc(N3CCOc4cc(C(=O)N5CCCCC5)cnc43)ccc2C1=O [Example 8-18]

Row | IC50 [nM] | Structure (SMILES)
39 | > 100 | CCn1nc2cc(N3CCCc4cc(C(=O)N5CCN(C(C)=O)CC5)cnc43)ccn2c1=O [Example 8-153]
40 | > 100 | O=C(O)c1ccc(N2CCCS(=O)(=O)c3cc(C(=O)N4CCCCC4)ccc32)cc1 [Example 2-20]
41 | > 100 | Cn1nc2cc(N3CCOc4cc(C(=O)N5CCC[C@H]5C(=O)OC(C)(C)C)cnc43)ccn2c1=O [Example 8-227]
42 | < 10 | C[C@H]1CCCCN1C(=O)c1cnc2c(c1)CCCN2c1ccn2c(=O)n(C)nc2c1 [Example 8-133]
43 | 10 to 100 | COC(=O)c1ccc(N2CCN(c3ccn4c(=O)n(C)nc4c3)c3ncc(C(=O)N4CCC(F)(F)CC4)cc32)cc1 [Example 30-3]
44 | < 10 | CO[C@@H]1CCCN(C(=O)c2cnc3c(c2)OCCN3c2ccn3c(=O)n(C)nc3c2)C1 [Example 18-1, (R)-7-(7-(3-Methoxypiperidine-1-carbonyl)-2,3-dihydro-4H-pyrido[3,2-b] [1,4]oxazin-4-yl)-2-methyl-[1,2,4]triazolo[4,3-a]pyridin-3(2H)-one]
45 | > 100 | O=C(O)c1ccccc1N1CCOc2cc(C(=O)N3CCCCC3)ccc21 [Example 2-27]
46 | 10 to 100 | O=C(O)c1ccc(N2CCOc3cc(C(=O)N4CCOCC4)cnc32)cc1 [Example 4-10]
47 | 10 to 100 | CCn1nc2cc(N3CCCc4cc(C(=O)N5CCN(C)CC5)cnc43)ccn2c1=O [Example 8-152]
48 | < 10 | O=C(c1ccc2c(c1)OCCN2c1ccc(-c2nnn[nH]2)cc1)N1CCC(F)(F)CC1 [Example 3-1, (4-(4-(1H-Tetrazol-5-yl)phenyl)-3,4-dihydro-2H-benzo[b][1,4]oxazin-7-yl)(4,4-difluoropiperidin-1-yl)methanone]
49 | 10 to 100 | CC(C)(C)OC(=O)c1ccc(N2CCOc3cc(C(=O)N4CCC[C@@H](F)C4)cnc32)cc1 [Example 8-7]
50 | < 10 | O=C(c1cnc2c(c1)OCCN2c1ccn2c(=O)n(Cc3ccc(F)cc3)nc2c1)N1CCCCC1 [Example 27-1]
51 | < 10 | O=C(c1cnc2c(c1)OCCN2c1ccn2c(=O)n(Cc3ccc(F)cc3F)nc2c1)N1CCC(F)(F)CC1 [Example 27-5]
52 | < 10 | CN1CCN(c2ccn3c(=O)n(C)nc3c2)c2ncc(C(=O)N3CCCCC3)cc21 [Example 29-1, 2-Methyl-7-(l-methyl-7-(piperidine-1-carbonyl)-2,3-dihydropyrido[2,3-b]pyrazin-4(1H)-yl)-[1,2,4]triazolo[4,3-a]pyridin-3(2H)-one]
53 | < 10 | CCN1Cc2cc(N3CCCc4cc(C(=O)N5CCC[C@H](CF)C5)cnc43)ccc2C1=O [Example 8-92]
